# Laboratory results as given in US20180354909A1, “SUBSTITUTED BENZIMIDAZOLIUM, PYRIDO-IMIDAZOLIUM, OR PYRAZINO-IMIDAZOLIUM COMPOUNDS AS CHEMOTHERAPEUTICS” (The Board of Regents of the University of Texas System, priority 2015, published 2018).
# pEC50: −log10 of the molar value. Entries after “also recorded” stand apart in the source; their conditions may differ.
# Tests used:
# Mut6 [1] = assay: Cytotox testing (CellTiter-Glo ATP assay) in Mut6 cells; assay type: cell-based, mouse
# Method: (§1) Mut6 tumor cells were cultured in DMEM/F12 media supplemented by EGF (10 ng/mL), basic FGF (10 ng/mL), heparin (4 ug/mL), glucose (total 21 mM), NaHCO3 (113 μg/mL), Hepes (119 μg/mL), glutamine (2 mM), sodium pyruvate (1 mM), N2 supplement (ThermoFisher Gibco 17502-048, 100×, at 100-fold dilution), B27 supplement (ThermoFisher Gibco 12587-010, 50×, at 100-fold dilution), and penicillin/streptomycin (ThermoFisher, final 1%). Cells were maintained in Ultra-low attachment plate (Corning) as sphere-forming cells. For ATP assays and protein/RNA isolation, cells were plated into 96-well plates or 6-well plated that were coated with poly-lysine (Sigma P6407, 10 μg/mL in PBS, 4 hr at 37° C.) and laminin (ThermoFisher 23017015, ˜5 mg/L in PBS, overnight at 37° C.). MEFs and Astrocytes were cultured in DMEM supplemented with 10% FBS and 1% Penicillin/Streptomycin.
# 2,000 cells were plated into each well of 96-well plates. About 3 hours later, cells were treated by 12M11, at 800-fold dilution (4 mM stock was diluted into 5 μM final concentration). […] CellTiter-Glo assay (Promega) was performed according to manufacturer's instructions, by adding 20 μL of reagent into each well. Luminescence signal was detected by the PolarStar plate reader (BMG Labtech). Experiments were performed in quadruplicate, and results are presented with mean average −/+ standard deviation. EC505 were calculated by GraphPad Prism6 software.
# The compounds described herein were tested using a cell-based cytotoxicity assay against neuronal stem cells in Mut6, which is a mouse glioblastoma model cell line.
# Hepatocyte half-life = assay type: in vitro ADME; settings: hepatocytes; in vitro; read-out: hepatocyte T1/2
# MEF [2] = assay: Cytotox testing (CellTiter-Glo) in MEF; assay type: cell-based, mouse
# Method: as §1
# 2,000 cells were plated into each well of 96-well plates. About 3 hours later, cells were treated by 12M11, at 800-fold dilution (4 mM stock was diluted into 5 μM final concentration). Cells were further incubated for 4 days. CellTiter-Glo assay (Promega) was performed according to manufacturer's instructions, by adding 20 μL of reagent into each well. Luminescence signal was detected by the PolarStar plate reader (BMG Labtech). […] EC505 were calculated by GraphPad Prism6 software.
# astrocytes = assay: Cytotox testing (CellTiter-Glo) in astrocytes; assay type: cell-based
# Method: as §1
# 2,000 cells were plated into each well of 96-well plates. About 3 hours later, cells were treated by 12M11, at 800-fold dilution (4 mM stock was diluted into 5 μM final concentration). Cells were further incubated for 4 days. CellTiter-Glo assay (Promega) was performed according to manufacturer's instructions, by adding 20 μL of reagent into each well. Luminescence signal was detected by the PolarStar plate reader (BMG Labtech). Experiments were performed in quadruplicate, and results are presented with mean average −/+ standard deviation. EC505 were calculated by GraphPad Prism6 software.
# Phospho-S6 = assay: p-S6 western blot in Mut6 cells; assay type: cell-based, mouse
# Method: Mut6 tumor cells and MEFs were treated by DMSO or 1 μM 12M11 for the indicated times. Cell lysate was prepared by RIPA buffer with phosphatase inhibitor (Thermo) and protease inhibitor (Roche). Antibodies are purchased from Santa Cruz (ATF4), Cell Signaling (pS6, S6, AMPK, and pAMPK), and Millipore (Gapdh).
# [3] = system: mitochondrial membrane potential; assay: TMRE mitochondrial membrane potential staining in Mut6 cells; assay type: cell-based, mouse; settings: within 30 min
# Method: TMRE mitochondrial membrane potential assay kit was purchased from Abcam (113852) and the assay was performed according to the manufacturer's protocol. Briefly, cells were pre-incubated with 1 μM 12M11 (10 min or 18 hrs) or 100 nM FCCP (10 min) and incubated for additional 20 min with 200 nM TMRE before pictures were taken.
# Mut6 [4] = assay: OCR and ECAR measurement (Seahorse) in Mut6; assay type: cell-based, mouse
# Method: (§2) Oxygen consumption rate (OCR) and extracellular acidification rate (ECAR) were measured by Seahorse Bioscience instrument (XF24) with 80-90% confluent cells, according to the manufacturer's protocol. Briefly, cells were equilibrated for 1 hr at 37° C. incubator lacking CO2. Oxygen concentration and pH in media were measured during sequential treatment with 12M11, Oligomycin (1 μM), FCCP (1 μM), and Rotenone (200 nM). A minimum of three wells were utilized per condition to calculate OCR and ECAR.
# MEF [5] = assay: OCR and ECAR measurement (Seahorse) in MEF; assay type: cell-based, mouse
# Method: as §2
# MEF [6] = assay: Change in ATP levels in MEF cells; assay type: cell-based, mouse; settings: 2-6 hr
# Method: Mut6 tumor cells or MEFs were plated into 96-well plates. One day later, Oligomyin (2 μM), Rotenone (200 nM), or 12M11 (1 μM) were added into each well and then ATP levels were measured by Cell-Titer Glo (Promega) after 2 hr, 4 hr, or 6 hr incubation. Each data is mean of six replicates with ± standard deviation.
smiles,measurement,setting,value
CCc1n(CC(=O)O[C@@H]2C[C@H](C)CC[C@H]2C(C)C)c2ccccc2[n+]1C.[Cl-] [Compound 12M11],activity against Mut6 cells,Mut6 [1]; CellTiter-Glo,specific nanomolar activity; also recorded: specific toxicity
same,pEC50,"Mut6 [1]; Mus musculus, Mut6 cells, FIG. 1, read-out: potency",~7.00
same,cell death on Mut6 cells,Mut6 [1]; after six hours of exposure,irrevocable cell death
same,half-life,Hepatocyte half-life,4.28 h
same,activity against MEF,MEF [2],no to minimal effect; also recorded: no activity
same,activity against astrocytes,astrocytes,no to minimal effect; also recorded: no activity; also recorded: uniquely resistant
same,Phospho-S6 protein level,Phospho-S6,down regulation
same,oxidative phosphorylation / mitochondrial membrane potential by TMRE staining,[3],impairs oxidative phosphorylation
same,extracellular acidification rate (ECAR),Mut6 [4],dramatically increases
same,oxygen consumption rate (OCR),Mut6 [4],decrease
same,extracellular acidification,MEF [5],do not increase acidification significantly
same,oxygen consumption rate (OCR),MEF [5],decrease
same,ATP levels (% change from basal),MEF [6],increase
